In US6489362B1, “Carnitine supplemented diet to prevent or alleviate ascites in broiler type poultry” (The Board of Regents for Oklahoma State University, priority 1999, dated 2002):

Assays:
[1] = system: growing broilers; settings: cited from earlier work
[2] = system: Male Cobb-500 broiler chicks; assay: Carnitine supplemented basal diets fed to broiler chicks in respiratory chambers to 14 days of age; assay type: in vivo, broiler type chickens; settings: carnitine 200 ppm in basal diet; for Right ventricular weight (RV) / Ascites heart ratio (AHR), ratio of right ventricular mass to heart weight: 14 days of age; for Right ventricular weight (RV): control 0 ppm 0.21 ± 0.005; for Ascites heart ratio (AHR), ratio of right ventricular mass to heart weight: control 0 ppm 11.45 ± 0.24; for Hematocrit HCT: blood at week 2, control 0 ppm 36.11 ± 0.26
Protocol: Materials and Methods: Male Cobb-500 broiler chicks (obtained from Cobb Vantress of Siloam Springs, Ark.) were used. The chicks were divided into 24 groups of […] chicks and randomly assigned to 60 open circuit respiratory chambers in three separate rooms. The chambers were housed in 3 thermostatically controlled rooms with 24 hour fluorescent light. Two levels of carnitine (0,200 ppm) were added to the basal diets (Table 1) and examined at two oxygen levels (17 and 20.6%).
(§1) Feed and drinking water were provided for ad-libitum consumption. Chamber temperature was maintained at 30° C. the first 5 days of age and at 27.8° C. thereafter. Chambers were checked twice daily for bird mortality. Body weights of each chick were obtained on day 0, 7 and 14. Feed consumption was determined on a chamber basis at the end of 1 and 2 weeks and feed efficiency calculated. Oxygen consumption and CO2 production was recorded continuously on all chambers. Five birds at the start of the experiment were sacrificed for determination of initial composition. At the end of the experiment (Week 2) blood samples were taken from the wing vain of all birds for hematocrit determination. Heart weight and right ventricular mass of each bird were measured and the carcass saved for determination of lean and fat tissue gain using a Hologic densitometer.
Breathing Air Supply and Analysis: Compressed dried air (7% relative humidity (RH), 20.6% O2) was delivered to chicks in the chamber via polyethylene tubes. It was necessary to provide low RH air to the chick chamber in order to hold the chamber at RH below 75%. The concentration of O2 and CO2 in air exiting each bird's chamber was monitored each day using Ametek oxygen (accuracy±0.02%) and carbon dioxide (accuracy±.03%) analyzers, respectively.
Statistical Analysis: Data were analyzed using the General Linear Model procedure of SAS (SAS, 1985). When a significant F statistic was noted by ANOVA, treatment means were compared using least square analysis variance.

[3] = system: broilers; assay: Further examples: hematocrit of broilers fed carnitine supplemented diets; assay type: in vivo, broiler type chickens; settings: for Hematocrit HCT: control 0: 33.40
Protocol: Materials and Methods: Male Cobb-500 broiler chicks (obtained from Cobb Vantress of Siloam Springs, Ark.) were used. The chicks were divided into 24 groups of […] chicks and randomly assigned to 60 open circuit respiratory chambers in three separate rooms. The chambers were housed in 3 thermostatically controlled rooms with 24 hour fluorescent light. […]
as §1

SMILES: C[N+](C)(C)CC(O)CC(=O)[O-] (stereo not drawn) [Carnitine, 3-hydroxy-4-N-trimethylaminobutyric acid]
- Effect on feed intake, body and abdominal fat weight, carcass or liver lipid levels ([1]; carnitine in poultry diet, growing broilers (Cartwright 1986)): no beneficial effect
- Ethanol metabolism in broilers ([1]; dietary carnitine (Smith et al. 1992)): retard ethanol metabolism
- Hatchability of eggs ([1]; dietary carnitine (U.S. Pat. No. 5,362,753)): increase the hatchability of eggs
- Right ventricular weight (RV) [2]: 0.20 ± 0.006 g
- Right ventricular weight (RV) ([2]; listed as carnitine): significantly decreased
- Ascites heart ratio (AHR), ratio of right ventricular mass to heart weight [2]: 10.57 ± 0.26%
- Ascites heart ratio (AHR), ratio of right ventricular mass to heart weight ([2]; listed as carnitine): significantly decreased
- Hematocrit HCT [2]: 35.41 ± 0.24%
- Hematocrit HCT ([2]; listed as carnitine): significantly decreased
- Body weight gain (Gain) ([2]; broilers to 14 days of age): 265 ± 3.1 g/b
- Gain:feed ratio ([2]; broilers to 14 days of age): 0.76 ± 0.0
- Hematocrit HCT ([3]; carnitine level 12.5 (ppm) in diet): 32.11%
- Hematocrit HCT ([3]; carnitine level 50 (ppm) in diet): 31.99%
- Hematocrit HCT ([3]; carnitine level 100 (ppm) in diet): 30.60%
- Hematocrit values, change versus unsupplemented diet ([3]; diets at 12.5, 50 and 100 ppm carnitine): beneficial and significant lowering
